Reference: patent publication US20100099773A1, “INCLUSION COMPLEX OF S[…] BETA-CYCLODEXTRIN” (priority 2006, published 2010)

How the values were obtained:
Format in all cases: physicochemical
[1] = Solution stability (pH 5.2) at high temperature, impurities by HPLC; settings: solution 1 mg/mL; for Total impurities, 4th day: 4 days; for Total impurities, 7th day: 7 days; for Total impurities, 14th day: 14 days
Description: Solution Stability (pH 5.2)
Sibutramine free base, sibutramine hydrochloride monohydrate and sibutramine inclusion complex (Examples 1 and 2) were compared in terms of solution stability at high temperature.
Specifically, each compound was dissolved into the concentration of 1 mg/mL and pH 5.2, and the solution was moved to a 20 mL vial. Solution stability test was conducted at 60° C. and 70° C., respectively, by measuring the content of impurities with high performance liquid chromatography (HPLC) after the storage for 4, 7 and 14 days.

[2] = Temperature & humidity stability, impurities by HPLC; settings: for Content of impurities, 60° C., 75%: stored at 60° C. 75% for 2 weeks; for Content of impurities, 60° C., 93%: stored at 60° C. 93% for 2 weeks; for Content of impurities, 70° C., 75%: stored at 70° C. 75% for 2 weeks
Description: Temperature & Humidity Stability
Sibutramine free base, sibutramine hydrochloride monohydrate and sibutramine inclusion complex (Examples 1 and 2) were compared in terms of temperature and humidity stability.
Specifically, each compound was stored under the condition selected from the group consisting of 60° C. 75%, 60° C. 93% and 70° C. 75% for 2 weeks. The content impurities was measured with high performance liquid chromatography (HPLC).

[3] = Photo-stability after UV-irradiation, impurities by HPLC; settings: for Content of impurities, UV: after UV-irradiation for 120 hours (total radiation dosage: 200 watt); for Content of impurities, Initial: before UV-irradiation
Description: Sibutramine free base, sibutramine hydrochloride monohydrate and sibutramine inclusion complex (Examples 1 and 2) were compared in terms of photo-stability.
After UV-irradiation for 120 hours (total radiation dosage: 200 watt), the content of impurities was measured with high performance liquid chromatography (HPLC).

Row | SMILES | Total impurities, 4th day ([1]; pH 5.2, 60 C.) [%] | Total impurities, 7th day ([1]; pH 5.2, 60 C.) [%] | Total impurities, 14th day ([1]; pH 5.2, 60 C.) [%] | Total impurities, Initial ([1]; pH 5.2, 60 C.) [%] | Total impurities, 4th day ([1]; pH 5.2, 70 C.) [%] | Total impurities, 7th day ([1]; pH 5.2, 70 C.) [%] | Total impurities, 14th day ([1]; pH 5.2, 70 C.) [%] | Total impurities, Initial ([1]; pH 5.2, 70 C.) [%] | Temperature and humidity stability, in words ([2]; comparison of Table 3) | Content of impurities, Initial [2] | Content of impurities, 60° C., 75% [2] | Content of impurities, 60° C., 93% [2] | Content of impurities, 70° C., 75% [2] | Content of impurities, UV [3] | Content of impurities, Initial [3]
1 | CC(C)CC(N(C)C)C1(c2ccc(Cl)cc2)CCC1 (centres unmarked) [Sibutramine free base, N,N-dimethyl-1-[1-(4-chlorophenyl)-cyclobutyl]-3-methylbutylamine] | 7.59 | 13.77 | 17.16 | 0.00 | 10.04 | 17.05 | 20.52 | 0.00 | most unstable | 0.00 | 5.65 | 6.09 | 8.27 | 0.33 | 0.00
2 | CC(C)CC(N(C)C)C1(c2ccc(Cl)cc2)CCC1.Cl (centres unmarked) [Sibutramine hydrochloride monohydrate] | 0.02 | 0.02 | 0.09 | 0.00 | 1.56 | 2.09 | 4.49 | 0.00 | – | 0.00 | 0.06 | 0.07 | 0.13 | 0.11 | 0.06
